In patent US20250388572A1, “USE OF HPK1 INHIBITOR IN PREVENTION AND/OR TREATMENT OF HUMAN PATHOGEN INFECTION” (priority 2022, published 2025):
Where two headings read alike, the source gives them in different places. Values belong to the compound of their own block, whether it stands above or below them.

Experiments:
[1] = in vivo; details: male, Sprague Dawley, rat
Procedure: Six male Sprague Dawley rats were administrated a single dose via intravenous injection (iv, n=3) and oral administration (po, n=3), respectively. Intravenous injection was performed by formulating the compounds into 0.25 mg/ml or 0.5 mg/mL solutions using 10% DMSO/30% PEG400/60% water and administering it at a volume of 2 mL/kg. Oral administration was performed by formulating the compounds into 0.6 mg/ml or 2.0 mg/mL homogeneous suspensions using 0.5% methylcellulose and administering it at a volume of 5 mL/kg.
The pharmacokinetic parameters of the compounds were calculated using the WinNolin non-compartmental model.

[2] = Procedure: (§1) The procedure for identifying microsomal metabolites is as follows:
(§2) The compounds (test compounds and their numbers are shown below, among which compounds A1 and B1 are prepared by referring to the relevant method disclosed in CN110396087A) were weighed and dissolved into dimethyl sulfoxide to prepare a 20 mM solution. The compound stock solution was diluted with 50% acetonitrile in water (v/v) to a concentration of 1.0 mM as a working solution. Liver microsomes (20 mg/mL) were diluted to 1.27 mg/mL with 50 mM dipotassium hydrogen phosphate buffer as a liver microsome working solution. Reduced coenzyme was weighed and dissolved in 3307 μL of phosphate buffer (50 mM) to 5.0 mM as a reduced coenzyme working solution. For T=60 minutes samples, 4 μL of test working solution (1.0 mM) was added, followed by 316 μL of liver microsome working solution (1.27 mg/mL), and finally, 80 μL of reduced coenzyme working solution was added to start the reaction. For T=0 minutes samples, 316 μL of liver microsome working solution (1.27 mg/mL) was added and then 80 μL of reduced coenzyme working solution was added to start the reaction, without test solution incubation. After incubation at 37° C. for 60 minutes, 1200 μL of stop solution was added to stop the enzyme reaction. For T=0 minute samples, 4 μL of test working solution (1.0 mM) was added. The sample plate was placed on a vortexer and vortexed at 600 rpm for 5 minutes. Then, the sample plate was centrifuged at 4000 rpm for 10 minutes. The supernatant was removed, mixed, and dried at room temperature with nitrogen. The residue dried with nitrogen was redissolved in 300 μL of 10% acetonitrile (0.1% FA) solvent and then centrifuged at 4000 rpm for 15 minutes. The supernatant was transferred to a detection plate for mass spectrometry. Mass spectrometry was performed using LC/Q-Exactive plus.
(§3) 7-Ethoxycoumarin (10 μM) was selected as a positive control compound and operated in parallel with the compounds.

[3] = remark: listed apart in the source
Procedure: as §1, §2, §3

[4] = remark: listed apart in the source
Procedure: as §1, §2, §3

[5] = in vivo; details: male, cynomolgus monkey
Procedure: Three male Cynomolgus macaques were administrated a single dose via intravenous injection (iv, 1 mg/kg, n=3), followed by oral administration (po, 10 mg/kg, n=3) after washing out for one week. Intravenous injection was performed by formulating the compounds into 1.0 mg/mL solutions using water or 10% DMSO/30% PEG400/water and administering it at a volume of 1 mL/kg. Oral administration was performed by formulating the compounds into 2.0 mg/mL solutions or suspensions using water or 0.5% methylcellulose/1.7 meq 1N hydrochloric acid and administering it at a volume of 5 mL/kg.
The pharmacokinetic parameters of the compounds were calculated using the non-compartmental model.

[6] = remark: listed apart in the source
Procedure: as §1, §2, §3

[7] = remark: listed apart in the source
Procedure: as §1, §2, §3

[8] = Solid state stability of the free base crystalline form A (HPLC); type: physicochemical; details: closed placement at 60° C. for 1 day

AUC(0-t) ([1]; iv, 0.5 mg/kg): 74.8 ng·h/mL
clearance ([1]; iv, 0.5 mg/kg): 101 mL/min/kg
AUC(0-t) ([1]; po, 3 mg/kg): 42.8 ng·h/mL
bioavailability ([1]; po, 3 mg/kg): 9.52%
SMILES: [2H]C([2H])(Oc1cc(-c2cnn(C3CCN(C)CC3)c2)cnc1N)c1cccc(C#CC(C)(C)O)c1 [C]

remaining percentage of the parent cores after 60 min ([2]; human, microsomes, 1 h, 10 µM): 43.84%
remaining percentage of the parent cores after 60 min ([3]; beagle, dog, microsomes, 1 h, 10 µM): 0.17%
remaining percentage of the parent cores after 60 min ([4]; cynomolgus macaque, microsomes, 1 h, 10 µM): 0.36%
bioavailability [5]: 4.61%
AUC(0-t) ([5]; iv, 1 mg/kg): 881 ng·h/mL
clearance ([5]; iv, 1 mg/kg): 18.9 mL/min/kg
AUC(0-t) ([5]; po, 10 mg/kg): 388 ng·h/mL
remaining percentage of the parent cores after 60 min ([6]; rat, microsomes, 1 h, 10 µM): 2.44%
AUC(0-t) ([1]; iv, 1 mg/kg): 116 ng·h/mL
clearance ([1]; iv, 1 mg/kg): 129 mL/min/kg
AUC(0-t) ([1]; po, 10 mg/kg): 79.8 ng·h/mL
bioavailability ([1]; po, 10 mg/kg): 6.84%
remaining percentage of the parent cores after 60 min ([7]; mouse, microsomes, 1 h, 10 µM): 1.13%
SMILES: CN1CCC(n2cc(-c3cnc(N)c(OCc4cccc(C#CC(C)(C)O)c4)c3)cn2)CC1 [Compound A1, reference compound]

SMILES: [2H]C([2H])([2H])N1CCC(n2cc(-c3cnc(N)c(OCc4cccc(C#CC(C)(C)O)c4)c3)cn2)CC1 [Compound A2 free base crystalline form A, 4-(3-(((2-amino-5-(1-(1-trideuteriomethylpiperidin-4-yl)-1H-pyrazol-4-yl)pyridin-3-yl)oxy)methyl)phenyl)-2-methylbut-3-yn-2-ol]
HPLC Area (%) 60° C./1 day, peak 1 ([8]; RRT 0.95, starting sample 0.42): 0.41%
HPLC Area (%) 60° C./1 day, peak 2 ([8]; RRT 1.00 (main peak), starting sample 99.26): 99.33%
HPLC Area (%) 60° C./1 day, peak 3 ([8]; RRT 1.05, starting sample 0.22): 0.17%
HPLC Area (%) 60° C./1 day, peak 4 ([8]; RRT 1.06, starting sample 0.10): 0.09%

SMILES: CN1CCC(c2ncc(-c3cnc(N)c(OCc4cccc(C#CC(C)(C)O)c4)c3)s2)CC1 [Compound B1, reference compound]
remaining percentage of the parent cores after 60 min [2]: 51.82%
remaining percentage of the parent cores after 60 min [3]: 0.12%
remaining percentage of the parent cores after 60 min [4]: 9.11%
remaining percentage of the parent cores after 60 min [6]: 11.21%
remaining percentage of the parent cores after 60 min [7]: 1.24%

SMILES: [2H]C([2H])([2H])N1CCC(c2ncc(-c3cnc(N)c(OCc4cccc(C#CC(C)(C)O)c4)c3)s2)CC1 [Compound B2]
remaining percentage of the parent cores after 60 min [2]: 70.4%
remaining percentage of the parent cores after 60 min [3]: 8.9%
remaining percentage of the parent cores after 60 min [4]: 23.4%
remaining percentage of the parent cores after 60 min [6]: 43.9%
remaining percentage of the parent cores after 60 min [7]: 42.8%

AUC(0-t) ([1]; iv, 0.3 mg/kg): 28.7 ng·h/mL
clearance ([1]; iv, 0.3 mg/kg): 151 mL/min/kg
AUC(0-t) ([1]; po, 2 mg/kg): 9.94 ng·h/mL
bioavailability ([1]; po, 2 mg/kg): 5.2%
SMILES: [2H]C([2H])([2H])C(O)(C#Cc1cccc(COc2cc(-c3cnn(C4CCN(C)CC4)c3)cnc2N)c1)C([2H])([2H])[2H] [D]
